In patent US9822128B1, “Substituted spirooxindoles” (KING SAUD UNIVERSITY, priority 2017, dated 2017) one finds IC50 and SI data, which are given here for three molecules.

One test has as its system HepG2. Kind of test: MTT cytotoxicity assay, hepatocellular carcinoma cells. Type of test: cell-based, human. To be noted: for IC50: Homo sapiens, HepG2, MTT, 48 hrs incubation; for SI: Selectivity Index from IC50 normal (VERO-B) and IC50 cancer (HepG2). Here is the method:
(§1) The cytotoxic activity of the compounds was tested against different mammalian cancer cells, prostate carcinoma cells (PC-3), hepatocellular carcinoma (HepG2) and colon cancer cells (HCT-116) and against African green monkey kidney cell line (Vero-B). The cell lines were obtained from American Type Culture Collection (ATCC). The cells were cultivated at 37° C. and 10% CO2 in DMEM (Lonza, 12-604F) medium supplemented with 10% fetal bovine serum (FBS, Lonza, Cat. No. 14-801E), 100 IU/ml penicillin and 100 μg/ml streptomycin (Lonza, 17-602E). Cisplatin (cis-diamineplatinum (II) dichloride) was used as a positive control and was obtained from Sigma then dissolved in 0.9% saline then stored as 8 mM stock solution at −20° C. The synthesized compounds were solubilized in DMSO and stored at −20° C. 0.5% crystal violet was prepared in Methanol and was used to stain the viable cells (Feoktistova, Geserick et al. 2016). Crystal violet binds to proteins and DNA in the adherent and viable cells so the stain is an indicator for the viability of the treated cells. The viability of the cells were quantified by using MTT reagent (3-(4,5-dimethylthiazol-2-yl)-2,5-diphenyl tetrazolium bromide), which measure the activity of mitochondrial dehydrogenase in the viable cells (Slater, Sawyer et al. 1963, Mosmann 1983).
(§2) Cytotoxicity was further assayed as follows. The cells were seeded in 96-well plate as 5*10^4 cells/mL (100 μL/well). A serial dilutions of tested compounds or cisplatin (100, 30, 10, 3.3, 1.1 or 0.37 μM) was added after overnight incubation of the cells at 37° C. and 5% CO2. DMSO was used as a control (0.1%). The cells were incubated for 48 hrs. After that, 15 μl of MTT (5 mg/mL PBS) was added to each well and incubated for another 4 hours. The formazan crystals were solubilized by 100 μL acidified SDS solution (10% SDS/0.01 M HCl). The absorbance was measured after 14 hours of incubation at 37° C. and 5% CO2 at 570 nm by Biotech plate reader. Each experiment was repeated three times and standard deviation was calculated (±). IC50% was calculated as the concentration that cause 50% inhibition for cell growth. The growth of the cells were monitored and the images were acquired by Gx microscopes (GXMGXD202 Inverted Microscope) (10× Eyepiece) after staining with crystal violet.

A further test deals with HCT-116. Kind of test: MTT cytotoxicity assay, colon cancer cells. The test is classed as cell-based, human. The note with it: for IC50: Homo sapiens, HCT-116, MTT, 48 hrs incubation; for SI: Selectivity Index from IC50 normal (VERO-B) and IC50 cancer (HCT-116). Here is the method:
as §1, §2
A general note: Tetrazolium dyes change colour on reduction, which living cells bring about.

The test system of a further test is PC-3. Briefly: MTT cytotoxicity assay, prostate carcinoma cells. Type of test: cell-based, human. To be noted: for IC50: Homo sapiens, PC-3, MTT, 48 hrs incubation; for SI: Selectivity Index from IC50 normal (VERO-B) and IC50 cancer (PC-3). The protocol:
as §1, §2

The subject of a further test is Vero-B. Briefly: MTT cytotoxicity assay, normal kidney cell line. Type of test: cell-based, African green monkey. The note with it: Chlorocebus sabaeus, Vero B; Table 1; MTT, 48 hrs incubation; read-out: VERO-B (IC50% μM). Here is the method:
as §1, §2

[1] abbreviates: read-out: HCT-116 (IC50% μg/ml).

Each structure is given as a SMILES string. Where two headings read alike, the source gives them in different places.

Consider `O=C(/C=C/c1ccc(F)cc1)[C@H]1[C@H](c2ccc(F)cc2)[C@H]2CSCN2[C@]12C(=O)Nc1ccccc12` [Compound 4m, (3R,6′S,7′R,7a′S)-7′-(4-fluorophenyl)-6′-((E)-3-(4-fluorophenyl)acryloyl)-1′,6′,7′,7a′-tetrahydro-3′H-spiro[indoline-3,5′-pyrrolo[1,2-c]thiazol]-2-one], for which the IC50 turned out to be 2.4 ± 0.4 µM in the test with HepG2 (read-out: HepG2 (IC50% μM)); 1.2 µg/mL with HepG2 (read-out: HepG2 (IC50% μg/ml)); 5 ± 0.3 µM in the test with HCT-116 (read-out: HCT-116 (IC50% μM)); 2.4 µg/mL in the test on HCT-116 (setting [1]); 2.5 ± 0.2 µM in the test with PC-3 (read-out: PC-3 (IC50% μM)); 1.2 µg/mL in the test with PC-3 (read-out: PC-3 (IC50% μg/ml)). Besides, the IC50 in the test on Vero-B was found to be 6 µM. Further, the values for the SI in the test on HepG2, with HCT-116 and with PC-3 were 2.5, 1.2 and 2.4, respectively.
As to `O=C(/C=C/c1ccc(C(F)(F)F)cc1)[C@H]1[C@H](c2ccc(C(F)(F)F)cc2)[C@H]2CSCN2[C@]12C(=O)Nc1ccccc12` [Compound 4n, (3R,6′S,7′R,7a′S)-7′-(4-(trifluoromethyl)phenyl)-6′-((E)-3-(4-(trifluoromethyl)phenyl)acryloyl)-1′,6′,7′,7a′-tetrahydro-3′H-spiro[indoline-3,5′-pyrrolo[1,2-c]thiazol]-2-one], the IC50 with HepG2 (read-out: HepG2 (IC50% μM)) was determined as 0.9 ± 0.2 µM; in the test with HepG2 (read-out: HepG2 (IC50% μg/ml)), 0.5 µg/mL; with HCT-116 (read-out: HCT-116 (IC50% μM)), 2.9 ± 0.4 µM; with HCT-116 (setting [1]) it was 1.7 µg/mL; with PC-3 (read-out: PC-3 (IC50% μM)), 1 ± 0.2 µM; in the test on PC-3 (read-out: PC-3 (IC50% μg/ml)), 0.6 µg/mL. Moreover, the IC50 in the test on Vero-B came to 2.5 µM. In addition, the SI in the test on HepG2 stood at 2.778; with HCT-116, 0.8621; in the test with PC-3, 2.5.
`O=C(/C=C/c1ccc(F)cc1)[C@H]1[C@H](c2ccc(F)cc2)[C@H]2CSCN2[C@]12C(=O)Nc1ccc(Br)cc12` [Compound 4p, (3R,6′S,7′R,7a′S)-5-bromo-7′-(4-fluorophenyl)-6′-((E)-3-(4-fluorophenyl)acryloyl)-1′,6′,7′,7a′-tetrahydro-3′H-spiro[indoline-3,5′-pyrrolo[1,2-c]thiazol]-2-one]: the IC50 with HepG2 (read-out: HepG2 (IC50% μM)) worked out at 0.8 ± 0.1 µM; in the test on HepG2 (read-out: HepG2 (IC50% μg/ml)), 0.5 µg/mL; in the test on HCT-116 (read-out: HCT-116 (IC50% μM)) it was 3.5 ± 0.3 µM; in the test on HCT-116 (setting [1]) it was 2 µg/mL; with PC-3 (read-out: PC-3 (IC50% μM)), 1.5 ± 0.1 µM; in the test on PC-3 (read-out: PC-3 (IC50% μg/ml)), 0.8 µg/mL. The IC50 in the test with Vero-B is 3 µM. For the same molecule, the SI with HepG2 worked out at 3.75; in the test with HCT-116, 0.9571; in the test on PC-3, 2.
